# Test results reported in patent US11279733B2, “Peptide antibiotics” (priority 2017, dated 2022).
# Read-outs that look alike come from different tables or passages of the source. Starred links: 1 amine or outer side, 2 acyl side, 3 side chain; linkers in the order of their positions; H or OH if unused. Positions of bridges follow the written chain, without caps; N, C: chain ends. Non-standard residues stand in square brackets, D forms with d. Residues, ends and D or L forms follow the SMILES beside them. *: point of attachment. dPhe(4-CN) = N#Cc1ccc(C[C@@H](N)C(=O)O)cc1; Decanoyl(3R-OH) = CCCCCCC[C@@H](O)CC(=O)*; X12 = O=C(c1ccn(-c2ccccc2)c(=O)c1)*; dIgl = N[C@@H](C(=O)O)C1Cc2ccccc2C1; d(hPhe) = N[C@H](CCc1ccccc1)C(=O)O; Igl = N[C@H](C(=O)O)C1Cc2ccccc2C1; 4Pal = N[C@@H](Cc1ccncc1)C(=O)O; Decanoyl = CCCCCCCCCC(=O)*; NH(2-ClPh) = Clc1ccccc1N*; dDab = NCC[C@@H](N)C(=O)O; dDap = NC[C@@H](N)C(=O)O; Dab = NCC[C@H](N)C(=O)O; CO = O=C([*:1])[*:2]
# How the values were obtained:
# [1] = Cytotoxicity, resazurin assay, HEK293; conditions: human
# Method in brief: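 Cells (4000/well, pre-attached 24 h) then received 5 μM resazurin for 2 h, with fluorescence measured at ex 560/em 590.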
# P. aeruginosa ATCC 27853 = system: P. aeruginosa ATCC 27853
# Method in brief: (§1)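 Mid-log cultures grown in Mueller Hinton broth at 37° C were tested by 2-fold broth microdilution at 5×10^5 CFU/mL final. Compounds were dissolved in water and tested over a final range of 32 to 0.015 μg/mL.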
# A. baumannii ATCC 19606 = system: A. baumannii ATCC 19606
# Method in brief: as §1
# [2] = system: P. aeruginosa GN_105, PmxR
# Method in brief: as §1
# [3] = system: K. pneumoniae GN_106, PmxR
# Method in brief: as §1
# K. pneumoniae ATCC 13883 = system: K. pneumoniae ATCC 13883
# Method in brief: as §1
# [4] = system: P. aeruginosa GN_043, PmxR
# Method in brief: as §1
# [5] = system: K. pneumoniae ATCC BAA-2146, NDM-1 pos
# Method in brief: as §1
# [6] = system: K. pneumoniae GN_102 PmxR
# Method in brief: as §1
# A. baumannii GN_093 PmxR = system: A. baumannii GN_093 PmxR
# Method in brief: as §1
# [7] = system: K. pneumoniae ATCC 700603, MDR
# Method in brief: as §1
# E. coli ATCC 25922 = system: E. coli ATCC 25922
# Method in brief: as §1
# [8] = system: S. aureus ATCC 25923, MSSA
# Method in brief: as §1
Structure (SMILES),CC50 at 24 h [1],"MIC P. aeruginosa GN_043, PmxR ([4]; P. aeruginosa GN_043, PmxR)",MIC P. aeruginosa ATCC 27853 (P. aeruginosa ATCC 27853; ATCC 27853),MIC A. baumannii ATCC 19606 (A. baumannii ATCC 19606; ATCC 19606),"MIC P. aeruginosa GN_105, PmxR ([2]; GN 105, PmxR)","MIC K. pneumoniae GN_106, PmxR ([3]; GN 106, PmxR)",MIC K. pneumoniae ATCC 13883 (K. pneumoniae ATCC 13883; ATCC 13883),"MIC P. aeruginosa GN_043, PmxR ([4]; polymyxin-resistant)","MIC K. pneumoniae ATCC BAA-2146, NDM-1 pos ([5]; ATCC BAA-2146)",MIC K. pneumoniae GN_102 PmxR ([6]; GN 102 PmxR),MIC A. baumannii GN_093 PmxR (A. baumannii GN_093 PmxR; GN 093 PmxR),"MIC K. pneumoniae ATCC 700603, MDR ([7]; ATCC 700603)",MIC E. coli ATCC 25922 (E. coli ATCC 25922; ATCC 25922),"MIC S. aureus ATCC 25923, MSSA ([8]; ATCC 25923)",also measured
"CC(C)C[C@@H]1NC(=O)[C@H](CCN)NC(=O)[C@H](CCN)NC(=O)[C@H](CC(C)C)NC(=O)[C@@H](Cc2ccccc2)NC(=O)[C@H](CCN)NC(=O)[C@@H](NC(=O)[C@@H](CN)NC(=O)Nc2ccccc2Cl)CCNC1=O [compound 9188, 2-ClPh-NHCO-D-Dap-cyc[L-Dab-L-Dab-D-Phe-L-Leu-L-Dab-L-Dab-L-Leu]] ({NH(2-ClPh)-CO}-[dDap][Dab][Dab][dF]L[Dab][Dab]L; lactam 2-C)",> 300 µM,>16 µg/mL,–,–,–,–,–,–,–,–,–,–,–,–,"MIC P. aeruginosa ATCC 27853 (P. aeruginosa ATCC 27853; P. aeruginosa ATCC 27853): 2 µg/mL; MIC A. baumannii ATCC 19606 (A. baumannii ATCC 19606; A. baumannii ATCC 19606): >32 µg/mL; MIC P. aeruginosa GN_105, PmxR ([2]; P. aeruginosa GN_105, PmxR): >16 µg/mL; MIC K. pneumoniae GN_106, PmxR ([3]; K. pneumoniae GN_106, PmxR): >16 µg/mL; MIC K. pneumoniae ATCC 13883 (K. pneumoniae ATCC 13883; K. pneumoniae ATCC 13883): 16 µg/mL; MIC K. pneumoniae ATCC BAA-2146, NDM-1 pos ([5]; K. pneumoniae ATCC BAA-2146, NDM-1 pos): 8 µg/mL; MIC K. pneumoniae GN_102 PmxR ([6]; K. pneumoniae GN_102 PmxR): >16 µg/mL; MIC A. baumannii GN_093 PmxR (A. baumannii GN_093 PmxR; A. baumannii GN_093 PmxR): >16 µg/mL; MIC K. pneumoniae ATCC 700603, MDR ([7]; K. pneumoniae ATCC 700603, MDR): 8 µg/mL; MIC E. coli ATCC 25922 (E. coli ATCC 25922; E. coli ATCC 25922): 8 µg/mL; MIC S. aureus ATCC 25923, MSSA ([8]; S. aureus ATCC 25923, MSSA): >16 µg/mL"
"CCCCCCC[C@@H](O)CC(=O)N[C@H](CCN)C(=O)N[C@H]1CCNC(=O)[C@H](Cc2c[nH]c3ccccc23)NC(=O)[C@H](CCN)NC(=O)[C@H](CCN)NC(=O)[C@H](CC(C)C)NC(=O)[C@@H](CCc2ccccc2)NC(=O)[C@H](CCN)NC1=O [compound 8129, 3(R)OH-nC9CO-D-Dab-cyc[L-Dab-L-Dab-L-Dab-D-hPhe-L-Leu-L-Dab-L-Dab-L-Trp]] ({Decanoyl(3R-OH)}-[dDab][Dab][Dab][d(hPhe)]L[Dab][Dab]W; lactam 2-C)",37 µM,–,2 µg/mL,4 µg/mL,2 µg/mL,4 µg/mL,4 µg/mL,4 µg/mL,4 µg/mL,4 µg/mL,4 µg/mL,4 µg/mL,2 µg/mL,2 µg/mL,–
"CCCCCCC[C@@H](O)CC(=O)N[C@H](CN)C(=O)N[C@H]1CCNC(=O)[C@H](Cc2c[nH]c3ccccc23)NC(=O)[C@H](CCN)NC(=O)[C@H](CCN)NC(=O)[C@H](C2Cc3ccccc3C2)NC(=O)[C@@H](C2Cc3ccccc3C2)NC(=O)[C@H](CCN)NC1=O [compound 8897, 3(R)OH-nC9CO-D-Dap-cyc[L-Dab-L-Dab-D-indanylgly-L-indanylgly-L-Dab-L-Dab-L-Trp]] ({Decanoyl(3R-OH)}-[dDap][Dab][Dab][dIgl][Igl][Dab][Dab]W; lactam 2-C)",27 µM,–,4 µg/mL,4 µg/mL,2 µg/mL,4 µg/mL,4 µg/mL,2 µg/mL,4 µg/mL,4 µg/mL,4 µg/mL,4 µg/mL,2 µg/mL,2 µg/mL,–
"CC(C)C[C@@H]1NC(=O)[C@H](CCN)NC(=O)[C@H](CCN)NC(=O)[C@H](CC(C)C)NC(=O)[C@@H](Cc2ccccc2)NC(=O)[C@H](CCN)NC(=O)[C@@H](NC(=O)[C@@H](CN)NC(=O)c2ccn(-c3ccccc3)c(=O)c2)CCNC1=O [compound 9189, 4-(1-Ph-pyridinone)-D-Dap-cyc[L-Dab-L-Dab-D-Phe-L-Leu-L-Dab-L-Dab-L-Leu]] (X12-[dDap][Dab][Dab][dF]L[Dab][Dab]L; lactam 2-C)",> 300 µM,4 µg/mL,4 µg/mL,>32 µg/mL,16 µg/mL,>32 µg/mL,>32 µg/mL,–,32 µg/mL,>32 µg/mL,>32 µg/mL,32 µg/mL,>32 µg/mL,>32 µg/mL,–
"CCCCCCC[C@@H](O)CC(=O)N[C@H](CCN)C(=O)N[C@H]1CCCCNC(=O)[C@H](CC(C)C)NC(=O)[C@H](CCN)NC(=O)[C@H](CCN)NC(=O)[C@H](CC(C)C)NC(=O)[C@@H](Cc2ccccc2)NC(=O)[C@H](CCN)NC1=O [compound 5382, 3(R)OH-nC9CO-D-Dab-cyc[L-Lys-L-Dab-D-Phe-L-Leu-L-Dab-L-Dab-L-Leu]] ({Decanoyl(3R-OH)}-[dDab]K[Dab][dF]L[Dab][Dab]L; lactam 2-C)",> 300 µM,2 µg/mL,4 µg/mL,32 µg/mL,2 µg/mL,>32 µg/mL,8 µg/mL,–,8 µg/mL,>32 µg/mL,>32 µg/mL,8 µg/mL,4 µg/mL,32 µg/mL,–
"CCCCCCC[C@@H](O)CC(=O)N[C@H](CCN)C(=O)N[C@H]1CCNC(=O)[C@H](Cc2ccncc2)NC(=O)[C@H](CCN)NC(=O)[C@H](CCN)NC(=O)[C@H](CC(C)C)NC(=O)[C@@H](Cc2ccccc2)NC(=O)[C@H](CCN)NC1=O [compound 8906, 3(R)OH-nC9CO-D-Dab-cyc[L-Dab-L-Dab-D-Phe-L-Leu-L-Dab-L-Dab-L-Ala(4py)]] ({Decanoyl(3R-OH)}-[dDab][Dab][Dab][dF]L[Dab][Dab][4Pal]; lactam 2-C)",> 300 µM,–,1 µg/mL,>32 µg/mL,2 µg/mL,16 µg/mL,4 µg/mL,0.5 µg/mL,8 µg/mL,16 µg/mL,>32 µg/mL,4 µg/mL,4 µg/mL,>32 µg/mL,–
"CCCCCCC[C@@H](O)CC(=O)N[C@H](CCN)C(=O)N[C@H]1CCNC(=O)[C@H](Cc2c[nH]c3ccccc23)NC(=O)[C@H](CCN)NC(=O)[C@H](CCN)NC(=O)[C@H](CC(C)C)NC(=O)[C@@H](Cc2ccc(C#N)cc2)NC(=O)[C@H](CCN)NC1=O [compound 8105, 3(R)OH-nC9CO-D-Dab-cyc[L-Dab-L-Dab-L-Dab-D-Phe(4-CN)-L-Leu-L-Dab-L-Dab-L-Trp]] ({Decanoyl(3R-OH)}-[dDab][Dab][Dab][dPhe(4-CN)]L[Dab][Dab]W; lactam 2-C)",107 µM,–,2 µg/mL,8 µg/mL,2 µg/mL,8 µg/mL,8 µg/mL,2 µg/mL,4 µg/mL,4 µg/mL,16 µg/mL,8 µg/mL,4 µg/mL,4 µg/mL,–
"CCCCCCCCCC(=O)N[C@H](CN)C(=O)N[C@H]1CCNC(=O)[C@H](CC(C)C)NC(=O)[C@H](CCN)NC(=O)[C@H](CCN)NC(=O)[C@H](CC(C)C)NC(=O)[C@@H](Cc2ccccc2)NC(=O)[C@H](CCN)NC1=O [compound 9192, nC9CO-D-Dap-cyc[L-Dab-L-Dab-D-Phe-L-Leu-L-Dab-L-Dab-L-Leu]] (Decanoyl-[dDap][Dab][Dab][dF]L[Dab][Dab]L; lactam 2-C)",224 µM,4 µg/mL,4 µg/mL,32 µg/mL,2 µg/mL,8 µg/mL,8 µg/mL,–,8 µg/mL,8 µg/mL,4 µg/mL,8 µg/mL,2 µg/mL,8 µg/mL,–
